Assay results taken from PMC12362431, “Kinetic Dissection of the Reaction of Human GDP-L-Fucose Synthase” (ACS Catalysis, 2025).
Like-named read-outs stand apart in the source and are kept apart here. One block for each compound: values may come before it.

Tests used:
[1] = biological target: apo GFS (ligand-free wild-type GFS) (Homo sapiens, UniProt Q13630); experiment: Fluorescence titration, equilibrium binding (quenching of intrinsic protein fluorescence); details: for Kd: apo GFS 0.40 μM, 10 mM Tris, 25 mM NaCl, pH 8.0, 25 °C
Sequence of apo GFS (ligand-free wild-type GFS) (Q13630 8-321): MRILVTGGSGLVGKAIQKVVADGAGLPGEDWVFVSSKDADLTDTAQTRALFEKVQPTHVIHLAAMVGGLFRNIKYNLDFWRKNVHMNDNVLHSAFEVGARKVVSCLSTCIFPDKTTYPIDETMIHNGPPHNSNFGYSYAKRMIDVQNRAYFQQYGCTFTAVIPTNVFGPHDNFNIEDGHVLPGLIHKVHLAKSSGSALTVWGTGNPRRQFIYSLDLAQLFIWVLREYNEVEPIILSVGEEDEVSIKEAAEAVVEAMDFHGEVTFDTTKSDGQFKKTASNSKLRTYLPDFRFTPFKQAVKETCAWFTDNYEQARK

GFS variant Y143F = biological target: T1, GFS variant Y143F (Homo sapiens, UniProt Q13630, Y143F); experiment: Steady-state initial-rate kinetics and primary KIE (NADPH consumption, absorbance at 340 nm); assay type: biochemical
T1 construct: made in house; host or cells: E. coli Rosetta 2(DE3)
T1 sequence (Q13630 whole entry Y143F): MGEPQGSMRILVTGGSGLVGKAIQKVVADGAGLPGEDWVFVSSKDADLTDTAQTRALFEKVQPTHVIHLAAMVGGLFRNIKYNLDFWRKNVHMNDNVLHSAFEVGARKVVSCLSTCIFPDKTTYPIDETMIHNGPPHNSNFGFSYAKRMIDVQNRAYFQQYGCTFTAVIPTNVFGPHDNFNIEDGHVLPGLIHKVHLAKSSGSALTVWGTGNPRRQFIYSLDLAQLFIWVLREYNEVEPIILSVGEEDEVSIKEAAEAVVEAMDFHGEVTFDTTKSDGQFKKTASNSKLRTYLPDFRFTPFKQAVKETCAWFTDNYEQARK

GFS variant H186K = biological target: T2, GFS variant H186K (Homo sapiens, UniProt Q13630, H186K); experiment: as above; assay type: biochemical
T2 construct: made in house; host or cells: E. coli Rosetta 2(DE3)
T2 sequence (Q13630 whole entry H186K): as the sequence (Q13630 whole entry Y143F) above, with F143Y, H186K counted along it

GFS variant C116S = biological target: T3, GFS variant C116S (Homo sapiens, UniProt Q13630, C116S); experiment: as above; assay type: biochemical; details: deuterated vs unlabeled substrate/coenzyme, pH 8.0, 37 °C, in 1/s
T3 construct: made in house; host or cells: E. coli Rosetta 2(DE3)
T3 sequence (Q13630 whole entry C116S): as the sequence (Q13630 whole entry Y143F) above, with C116S, F143Y counted along it

wild-type GFS [2] = biological target: T4, wild-type GFS (Homo sapiens, UniProt Q13630); experiment: as above; assay type: biochemical
T4 construct: made in house; host or cells: E. coli Rosetta 2(DE3)
T4 sequence (Q13630 8-321): as the sequence (Q13630 8-321) above

GFS [3] = system: GFS; design: method as in not given; details: earlier studies of GFS, source organism not given; ref not given; cited from earlier work
wild-type GFS [4] = biological target: T4, wild-type GFS; experiment: Global simulation fitting of mechanism b to transient stopped-flow curves; assay type: biochemical; details: release from the ternary product complex enzyme/NADP+/GDP-L-fucose
Experimental: Spectrofluorometric analysis of ligand binding
Fluorescence titrations of wild-type GFS in the binding of coenzyme, substrate and/or product were performed using a fluorescence spectrophotometer F-4500 (Hitachi, Ltd., Tokyo, Japan).
Emission spectra were recorded in the range 300–500 nm at 1200 nm/min with the excitation […]
25 mM NaCl, pH 8.0) without agitation (25 °C). […] The resulting fluorescence signals were plotted versus ligands concentrations and the data were fitted to a hyperbol ic equation (Eq. S6) to obtain the Kd value (Figure S8, S9; Table S3): […]
where F is the fluorescence emission, [L] is concentration of ligand, F1 is the initial and F2 is the final fluorescence signal, [E] is the enzyme subunit concentration. […]
the fluorescence measurements. […]
Standard errors for the fitted rate constants were estimated as standard deviations based on the variability observed during global fitting . The goodness of fit to the model was assessed by confidence contour analysis, in which all parameters, except for k-1, were well constrained by the data. […]

GFS [5] = biological target: GFS; design: method as in not given; details: earlier studies of GFS, source organism not given; ref not given; cited from earlier work; remark: listed apart in the source
GFS complex with NADPH4 = biological target: T5, GFS complex with NADPH4 (Homo sapiens, UniProt Q13630); experiment: Stopped-flow transient kinetic analysis of binding of GDP-L-fucose (fluorescence quenching)
T5 construct: made in house; host or cells: E. coli Rosetta 2(DE3)
T5 sequence (Q13630 8-321, one chain of several): as the sequence (Q13630 8-321) above

[6] = biological target: enzyme/NADPH4 (GFS/NADPH4 complex) (Homo sapiens, UniProt Q13630); experiment: Fluorescence titration, equilibrium binding (quenching of intrinsic protein fluorescence)
Sequence of enzyme/NADPH4 (GFS/NADPH4 complex) (Q13630 8-321, one chain of several): as the sequence (Q13630 8-321) above

[7] = biological target: enzyme/NADP+ (GFS/NADP+ complex) (Homo sapiens, UniProt Q13630); experiment: as above
Sequence of enzyme/NADP+ (GFS/NADP+ complex) (Q13630 8-321, one chain of several): as the sequence (Q13630 8-321) above

[8] = deuterated vs unlabeled substrate/coenzyme, pH 8.0, 37 °C, in 1/s
[9] = varied substrate 3, pH 8.0, 37 °C
[10] = nonlinear fit of kobs with eq S15

Kd [1]: 0.3 ± 0.1 µM
tighter binding to the free GFS than NADP+ ([1]; ratio of Kd values): 27 fold
Structure (SMILES): NC(=O)C1=CN([C@@H]2O[C@H](COP(=O)(O)OP(=O)(O)OC[C@H]3O[C@@H](n4cnc5c(N)ncnc54)[C@H](OP(=O)(O)O)[C@@H]3O)[C@@H](O)[C@H]2O)CCC1 [NADPH4, 1″,4″,5″,6″-tetrahydro-NADPH]

kinetic isotope effect on kcat (Dkcat) (GFS variant Y143F; [8]): 3.9 ± 0.3
kinetic isotope effect on kcat/Km, Dkcat/Km^3 (GFS variant Y143F; [9]): 4 ± 1
kinetic isotope effect on kcat (Dkcat) (GFS variant H186K; [8]): 1.12 ± 0.08
kinetic isotope effect on kcat/Km, Dkcat/Km^3 (GFS variant H186K; [9]): 1.1 ± 0.5
kinetic isotope effect on kcat (Dkcat) (GFS variant C116S): 1.0 ± 0.2
kinetic isotope effect on kcat (Dkcat) (wild-type GFS [2]; [8]): 1.03 ± 0.05
kinetic isotope effect on kcat/Km, Dkcat/Km^NADPH (wild-type GFS [2]; varied coenzyme, substrate 3 100 μM, pH 8.0, 37 °C): 1.6 ± 0.2
kinetic isotope effect on kcat/Km, Dkcat/Km^3 (wild-type GFS [2]; [9]): 1.4 ± 0.4
Structure (SMILES): [2H][C@@H]1C=CN([C@@H]2O[C@H](COP(=O)(O)OP(=O)(O)OC[C@H]3O[C@@H](n4cnc5c(N)ncnc54)[C@H](OP(=O)(O)O)[C@@H]3O)[C@@H](O)[C@H]2O)C=C1C(N)=O [[4S-^2H]-NADPH]
KIE on the enzymatic rate (GFS [3]): 1.4

Km (wild-type GFS [2]; varied NADPH, substrate 3 100 μM, pH 8.0, 37 °C): 0.75 ± 0.03 µM
Structure (SMILES): NC(=O)C1=CN([C@@H]2O[C@H](COP(=O)(O)OP(=O)(O)OC[C@H]3O[C@@H](n4cnc5c(N)ncnc54)[C@H](OP(=O)(O)O)[C@@H]3O)[C@@H](O)[C@H]2O)C=CC1 [NADPH]

rate constant for the release (wild-type GFS [4]): 26 s^–1
Kd [1]: 8 ± 2 µM
Structure (SMILES): NC(=O)c1ccc[n+]([C@@H]2O[C@H](COP(=O)([O-])OP(=O)(O)OC[C@H]3O[C@@H](n4cnc5c(N)ncnc54)[C@H](OP(=O)(O)O)[C@@H]3O)[C@@H](O)[C@H]2O)c1 [NADP+]

Structure (SMILES): Nc1nc2c(ncn2[C@@H]2O[C@H](COP(=O)(O)OP(=O)(O)O)[C@@H](O)[C@H]2O)c(=O)[nH]1 [GDP, guanosine 5′-diphosphate]
Ki (GFS [5]): 60.5 µM

koff (GFS complex with NADPH4; global simulation fit, lower bound only, read-out: koff (association step)): ≥ 11 s⁻¹
kon (GFS complex with NADPH4; global simulation fit, lower bound only, read-out: kon (association step)): ≥ 2e+06 M⁻¹ s⁻¹
k′1 (GFS complex with NADPH4; global simulation fit, range 0.3–0.8 s^–1): 0.6 s^–1
k′–1 (GFS complex with NADPH4; global simulation fit, range 0.5–1.4 s^–1): 0.9 s^–1
Kd (GFS complex with NADPH4; global simulation fit, range 3–12 μM, read-out: Kd (two-step binding)): 7 µM
k′1 (forward conformational change) (GFS complex with NADPH4; [10]): 0.6 ± 0.1 s⁻¹
k′–1 (reverse conformational change, GDP-L-fucose release rate) (GFS complex with NADPH4; [10]): 0.5 ± 0.1 s^–1
Kd (GFS complex with NADPH4; nonlinear fit of kobs with eq S15, GFS 2.0 μM, NADPH4 15.0 μM, pH 8.0, 37 °C, read-out: Kd (encounter complex, two-step binding)): 4 ± 2 µM
Kd [6]: 1.1 ± 0.2 µM
tighter binding to enzyme-NADPH4 than to enzyme-NADP+ ([6]; ratio of Kd values): ~12 fold
rate constant for the release (wild-type GFS [4]): 12 s^–1
Kd [7]: 13 ± 4 µM
Structure (SMILES): CC1OC(OP(=O)(O)OP(=O)(O)OCC2OC(n3cnc4c(=O)[nH]c(N)nc43)C(O)C2O)C(O)C(O)C1O [1a, GDP-L-fucose]
Ki (GFS [5]): 55.3 µM
